For experiment [1], the target named is CDK4-CYCLIND1 (Homo sapiens, UniProt P11802). The experiment is described as follows: Microfluidic LabChip inhibition assay, CDK4-CYCLIND1. Conditions: Table 2; ATP 200 μM, 25° C.; read-out: CDK4 IC50. Type of experiment: biochemical. How it is done:
(§1) The reaction was terminated by the addition of EDTA. The plates were analyzed using a Caliper LabChip 3000.
(§2) Additional inhibition assays were performed as described above.

For experiment [2], the target named is CDK6-CYCLIND3 (Homo sapiens, UniProt Q00534). The experiment is described as follows: Microfluidic LabChip inhibition assay, CDK6-CYCLIND3. Particulars: Table 2; ATP 300 μM, 25° C.; read-out: CDK6 IC50. Type of experiment: biochemical. How it is done:
as §1, §2

pIC50: −log10 of the molar value.

The pIC50 is the IC50 on a negative log10 scale, so that one unit is a factor of ten.

Sequence of CDK6-CYCLIND3 (Q00534 whole entry): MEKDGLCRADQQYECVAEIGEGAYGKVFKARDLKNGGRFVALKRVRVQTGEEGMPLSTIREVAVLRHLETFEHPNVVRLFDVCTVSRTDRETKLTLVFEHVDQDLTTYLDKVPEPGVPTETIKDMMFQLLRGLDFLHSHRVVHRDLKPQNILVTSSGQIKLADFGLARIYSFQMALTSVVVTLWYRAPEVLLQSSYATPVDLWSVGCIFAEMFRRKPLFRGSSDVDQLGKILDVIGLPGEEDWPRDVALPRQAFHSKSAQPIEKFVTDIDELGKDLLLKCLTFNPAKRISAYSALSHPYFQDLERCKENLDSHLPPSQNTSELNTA
Sequence of CDK6-CYCLIND3 (P30281 whole entry partner): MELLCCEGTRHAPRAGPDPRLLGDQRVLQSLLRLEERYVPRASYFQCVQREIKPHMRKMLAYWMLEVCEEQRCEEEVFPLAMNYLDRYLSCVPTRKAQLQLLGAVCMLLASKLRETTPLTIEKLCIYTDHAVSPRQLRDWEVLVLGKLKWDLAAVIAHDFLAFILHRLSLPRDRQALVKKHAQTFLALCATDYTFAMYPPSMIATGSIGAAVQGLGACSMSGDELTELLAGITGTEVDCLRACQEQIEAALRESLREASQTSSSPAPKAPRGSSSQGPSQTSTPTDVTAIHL
Sequence of CDK4-CYCLIND1 (P11802 whole entry): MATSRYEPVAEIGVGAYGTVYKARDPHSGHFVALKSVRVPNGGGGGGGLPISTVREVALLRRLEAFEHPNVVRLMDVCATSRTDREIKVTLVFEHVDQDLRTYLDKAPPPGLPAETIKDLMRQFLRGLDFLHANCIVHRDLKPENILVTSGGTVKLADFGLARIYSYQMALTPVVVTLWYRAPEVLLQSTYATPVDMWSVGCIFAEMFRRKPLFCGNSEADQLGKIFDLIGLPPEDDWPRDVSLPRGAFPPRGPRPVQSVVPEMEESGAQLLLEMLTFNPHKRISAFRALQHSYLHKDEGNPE
Sequence of CDK4-CYCLIND1 (P24385 whole entry partner): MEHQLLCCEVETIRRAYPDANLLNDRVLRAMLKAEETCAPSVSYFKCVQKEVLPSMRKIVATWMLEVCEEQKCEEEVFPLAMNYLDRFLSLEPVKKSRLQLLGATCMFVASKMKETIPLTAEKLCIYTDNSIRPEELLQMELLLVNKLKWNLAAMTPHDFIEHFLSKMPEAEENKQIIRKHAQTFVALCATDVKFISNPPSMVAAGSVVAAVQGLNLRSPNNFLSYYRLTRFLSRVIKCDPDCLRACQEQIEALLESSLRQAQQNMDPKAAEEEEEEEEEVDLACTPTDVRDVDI

With `CN1CCN(c2ccc(Nc3ncc4cc(C#N)c(=O)n(C56CC(C5)C6)c4n3)cc2)CC1` [Compound B1, 8-(bicyclo[1.1.1]pentan-1-yl)-2-((4-(4-methylpiperazin-1-yl)phenyl)amino)-7-oxo-7,8-dihydropyrido[2,3-d]pyrimidine-6-carbonitrile], the pIC50 in experiment [1] is 7.51; in experiment [2], 7.38.

As for `N#Cc1cc2cnc(Nc3ccc(N4CCNCC4)cn3)nc2n(C23CC(C2)C3)c1=O` [Compound B2, 8-(bicyclo[1.1.1]pentan-1-yl)-7-oxo-2-((5-(piperazin-1-yl)pyridin-2-yl)amino)-7,8-dihydropyrido[2,3-d]pyrimidine-6-carbonitrile], the negative-log IC50 (pIC50) in experiment [1] is 6.51; in experiment [2], 6.60.

As to `CN1CCN(c2ccc(Nc3ncc4cc(C#N)c(=O)n(C56CC(C5)C6)c4n3)nc2)CC1` [Compound B3, 8-(bicyclo[1.1.1]pentan-1-yl)-2-((5-(4-methylpiperazin-1-yl)pyridin-2-yl)amino)-7-oxo-7,8-dihydropyrido[2,3-d]pyrimidine-6-carbonitrile], the pIC50 in experiment [1] was 6.30; in experiment [2] it was 6.36.

For `CC(C)N1CCN(c2ccc(Nc3ncc4cc(C#N)c(=O)n(C56CC(C5)C6)c4n3)nc2)CC1` [Compound B4, 8-(bicyclo[1.1.1]pentan-1-yl)-2-((5-(4-isopropylpiperazin-1-yl)pyridin-2-yl)amino)-7-oxo-7,8-dihydropyrido[2,3-d]pyrimidine-6-carbonitrile], the figures for the pIC50 in experiment [1] and in experiment [2] were 6.67 and 6.81, respectively.

Take `CN1CCN(c2cnc(Nc3ncc4cc(C#N)c(=O)n(C5CCCC5)c4n3)cc2C(F)(F)F)CC1` [Compound B5, 8-cyclopentyl-2-((5-(4-methylpiperazin-1-yl)-4-(trifluoromethyl)pyridin-2-yl)amino)-7-oxo-7,8-dihydropyrido[2,3-d]pyrimidine-6-carbonitrile]: the pIC50 in experiment [1] is 4.59; in experiment [2], no more than 4.52.

As for `CN(C)CCOc1ccc(Nc2ncc3cc(C#N)c(=O)n(C4CCCC4)c3n2)nc1` [Compound B6, 8-cyclopentyl-2-((5-(2-(dimethylamino)ethoxy)pyridin-2-yl)amino)-7-oxo-7,8-dihydropyrido[2,3-d]pyrimidine-6-carbonitrile], the pIC50 was 7.01 in experiment [1] and 6.92 in experiment [2].

`N#Cc1cc2cnc(Nc3ccc(OCCN4CCCC4)cn3)nc2n(C2CCCC2)c1=O` [Compound B7, 8-cyclopentyl-7-oxo-2-((5-(2-(pyrrolidin-1-yl)ethoxy)pyridin-2-yl)amino)-7,8-dihydropyrido[2,3-d]pyrimidine-6-carbonitrile]: the pIC50 in experiment [1] was 7.00; in experiment [2], 6.99.

`N#Cc1cc2cnc(Nc3ccc(OCCN4CCCCC4)nc3)nc2n(C2CCCC2)c1=O` [Compound B8, 8-cyclopentyl-7-oxo-2-((6-(2-(piperidin-1-yl)ethoxy)pyridin-3-yl)amino)-7,8-dihydropyrido[2,3-d]pyrimidine-6-carbonitrile]: the values for the pIC50 in experiment [1] and in experiment [2] were 7.54 and 7.26, respectively.

As for `N#Cc1cc2cnc(Nc3ccc(C4=CCNCC4)cn3)nc2n(C2CCCC2)c1=O` [Compound B9, 8-cyclopentyl-7-oxo-2-((1′,2′,3′,6′-tetrahydro-[3,4′-bipyridin]-6-yl)amino)-7,8-dihydropyrido[2,3-d]pyrimidine-6-carbonitrile], the pIC50 is 7.47 in experiment [1] and 7.43 in experiment [2].

For `N#Cc1cc2cnc(Nc3cc(C(F)(F)F)c(N4CCNCC4)cn3)nc2n(C2CCCC2)c1=O` [Compound B10, 8-cyclopentyl-7-oxo-2-((5-(piperazin-1-yl)-4-(trifluoromethyl)pyridin-2-yl)amino)-7,8-dihydropyrido[2,3-d]pyrimidine-6-carbonitrile], the pIC50 was 5.55 in experiment [1] and 5.03 in experiment [2].

With `CN(C)CCOc1ccc(Nc2ncc3cc(C#N)c(=O)n(C4CCCC4)c3n2)cn1` [Compound B11, 8-cyclopentyl-2-((6-(2-(dimethylamino)ethoxy)pyridin-3-yl)amino)-7-oxo-7,8-dihydropyrido[2,3-d]pyrimidine-6-carbonitrile], the results for the pIC50 in experiment [1] and in experiment [2] were 7.42 and 6.88, respectively.

For `N#Cc1cc2cnc(Nc3ccc(OCCN4CCCCC4)cn3)nc2n(C2CCCC2)c1=O` [Compound B12, 8-cyclopentyl-7-oxo-2-((5-(2-(piperidin-1-yl)ethoxy)pyridin-2-yl)amino)-7,8-dihydropyrido[2,3-d]pyrimidine-6-carbonitrile], the pIC50 is 7.41 in experiment [1] and 7.21 in experiment [2].

Consider `N#Cc1cc2cnc(Nc3ccc(N4CCN5CCC4CC5)cn3)nc2n(C2CCCC2)c1=O` [Compound B13, 2-((5-(1,4-diazabicyclo[3.2.2]nonan-4-yl)pyridin-2-yl)amino)-8-cyclopentyl-7-oxo-7,8-dihydropyrido[2,3-d]pyrimidine-6-carbonitrile], for which the pIC50 in experiment [1] was 6.24; in experiment [2], 6.10.

`N#Cc1cc2cnc(Nc3ccc(N4CCNCC4)c(F)c3)nc2n(C2CCCC2)c1=O` [Compound B14, 8-cyclopentyl-2-((3-fluoro-4-(piperazin-1-yl)phenyl)amino)-7-oxo-7,8-dihydropyrido[2,3-d]pyrimidine-6-carbonitrile]: the pIC50 is 8.69 in experiment [1] and 8.14 in experiment [2].

In the case of `CN(C)CCOc1ccc(Nc2ncc3cc(C#N)c(=O)n(C4CCCC4)c3n2)cc1` [Compound B15, 8-cyclopentyl-2-((4-(2-(dimethylamino)ethoxy)phenyl)amino)-7-oxo-7,8-dihydropyrido[2,3-d]pyrimidine-6-carbonitrile], the pIC50 in experiment [1] is 8.34; in experiment [2] it was 7.84.

For the compound `CC(C)N1CCN(c2ccc(Nc3ncc4cc(C#N)c(=O)n(C5CCCC5)c4n3)cc2)CC1` [Compound B16, 8-cyclopentyl-2-((4-(4-isopropylpiperazin-1-yl)phenyl)amino)-7-oxo-7,8-dihydropyrido[2,3-d]pyrimidine-6-carbonitrile], the pIC50 in experiment [1] was 8.74; in experiment [2], 8.20.

For `CN1CCN(c2ccc(Nc3ncc4cc(C#N)c(=O)n(C5CCCC5)c4n3)cc2F)CC1` [Compound B17, 8-cyclopentyl-2-((3-fluoro-4-(4-methylpiperazin-1-yl)phenyl)amino)-7-oxo-7,8-dihydropyrido[2,3-d]pyrimidine-6-carbonitrile], the values for the negative logarithm of the IC50 (pIC50) in experiment [1] and in experiment [2] were 8.75 and 8.11, respectively.

On to `CC(C)N1CCN(c2ccc(Nc3ncc4cc(C#N)c(=O)n(C5CCCC5)c4n3)cc2F)CC1` [Compound B18, 8-cyclopentyl-2-((3-fluoro-4-(4-isopropylpiperazin-1-yl)phenyl)amino)-7-oxo-7,8-dihydropyrido[2,3-d]pyrimidine-6-carbonitrile], for which the figures for the pIC50 in experiment [1] and in experiment [2] were 8.64 and 7.98, respectively.

As to `CC(C)N1CCN(c2ccc(Nc3ncc4cc(C#N)c(=O)n(C5CCCC5)c4n3)c(F)c2)CC1` [Compound B19, 8-cyclopentyl-2-((2-fluoro-4-(4-isopropylpiperazin-1-yl)phenyl)amino)-7-oxo-7,8-dihydropyrido[2,3-d]pyrimidine-6-carbonitrile], the pIC50 was 7.16 in experiment [1] and 7.05 in experiment [2].

In the case of `N#Cc1cc2cnc(N3CCC(N4CCOCC4)CC3)nc2n(C2CCCC2)c1=O` [Compound B20, 8-cyclopentyl-2-(4-morpholinopiperidin-1-yl)-7-oxo-7,8-dihydropyrido[2,3-d]pyrimidine-6-carbonitrile], the pIC50 in experiment [1] is 4.80; in experiment [2] it was no more than 4.52.

Turning to `N#Cc1ccc(N2CCN(c3ncc4cc(C#N)c(=O)n(C5CCCC5)c4n3)CC2)cc1` [Compound B21, 2-(4-(4-cyanophenyl)piperazin-1-yl)-8-cyclopentyl-7-oxo-7,8-dihydropyrido[2,3-d]pyrimidine-6-carbonitrile], the pIC50 in experiment [1] and in experiment [2] was less than 4.52 each time.

On to `N#Cc1cc2cnc(Nc3ccc(N4CCNCC4)nc3)nc2n(C2CCCC2)c1=O` [Compound B22, 8-cyclopentyl-7-oxo-2-((6-(piperazin-1-yl)pyridin-3-yl)amino)-7,8-dihydropyrido[2,3-d]pyrimidine-6-carbonitrile], for which the pIC50 in experiment [1] was 8.16; in experiment [2], 7.71.

Consider `CN1CCN(c2ccc(Nc3ncc4cc(C#N)c(=O)n(C5CCCC5)c4n3)cn2)CC1` [Compound B23, 8-cyclopentyl-2-((6-(4-methylpiperazin-1-yl)pyridin-3-yl)amino)-7-oxo-7,8-dihydropyrido[2,3-d]pyrimidine-6-carbonitrile], for which the pIC50 is 7.94 in experiment [1] and 7.48 in experiment [2].

As to `N#Cc1cc2cnc(Nc3ccc(N4CCOCC4)c(F)c3)nc2n(C2CCCC2)c1=O` [Compound B24, 8-cyclopentyl-2-((3-fluoro-4-morpholinophenyl)amino)-7-oxo-7,8-dihydropyrido[2,3-d]pyrimidine-6-carbonitrile], the negative-log IC50 (pIC50) was 7.95 in experiment [1] and 7.45 in experiment [2].

Consider `CC(C)N1CCN(c2ccc(Nc3ncc4cc(C#N)c(=O)n(C5CCCC5)c4n3)nc2)CC1` [Compound B25, 8-cyclopentyl-2-((5-(4-isopropylpiperazin-1-yl)pyridin-2-yl)amino)-7-oxo-7,8-dihydropyrido[2,3-d]pyrimidine-6-carbonitrile], for which the pIC50 was 8.12 in experiment [1] and 7.72 in experiment [2].

As for `N#Cc1cc2cnc(Nc3ccc(N4CCNCC4)cc3F)nc2n(C2CCCC2)c1=O` [Compound B26, 8-cyclopentyl-2-((2-fluoro-4-(piperazin-1-yl)phenyl)amino)-7-oxo-7,8-dihydropyrido[2,3-d]pyrimidine-6-carbonitrile], the pIC50 in experiment [1] is 7.81; in experiment [2], 7.43.

As for `CN1CCN(c2ccc(Nc3ncc4cc(C#N)c(=O)n(C5CCCC5)c4n3)c(F)c2)CC1` [Compound B27, 8-cyclopentyl-2-((2-fluoro-4-(4-methylpiperazin-1-yl)phenyl)amino)-7-oxo-7,8-dihydropyrido[2,3-d]pyrimidine-6-carbonitrile], the figures for the pIC50 in experiment [1] and in experiment [2] were 6.34 and 5.85, respectively.

The values are drawn from patent US20220220103A1, “CYCLIN-DEPENDENT KINASE INHIBITORS” (SPV THERAPEUTICS INC., priority 2018, published 2022).
